The results in this text go back to ChEMBL document CHEMBL1139472, “Synthesis of N-{4-[(2,4-diamino-5-methyl-4,7-dihydro-3H-pyrrolo[2,3-d]pyrimidin-6-yl)thio]benzoyl}-L-glutamic acid and N-{4-[(2-amino-4-oxo-5-methyl-4,7-dihydro-3H-pyrrolo[2,3-d]pyrimidin-6-yl)thio]benzoyl}-L-glutamic acid as dual inhibitors of dihydrofolate reductase and thymidylate synthase and …” (J Med Chem, 2005).

The subject of test [1] is CCRF-CEM. As to the kind of experiment: cells. The settings on record: Homo sapiens.
Description: Growth inhibition of human CCRF-CEM cells
In test [2] the target is T1, Bifunctional dihydrofolate reductase-thymidylate synthase (Toxoplasma gondii, UniProt Q07422).
T1 sequence (Q07422 whole entry): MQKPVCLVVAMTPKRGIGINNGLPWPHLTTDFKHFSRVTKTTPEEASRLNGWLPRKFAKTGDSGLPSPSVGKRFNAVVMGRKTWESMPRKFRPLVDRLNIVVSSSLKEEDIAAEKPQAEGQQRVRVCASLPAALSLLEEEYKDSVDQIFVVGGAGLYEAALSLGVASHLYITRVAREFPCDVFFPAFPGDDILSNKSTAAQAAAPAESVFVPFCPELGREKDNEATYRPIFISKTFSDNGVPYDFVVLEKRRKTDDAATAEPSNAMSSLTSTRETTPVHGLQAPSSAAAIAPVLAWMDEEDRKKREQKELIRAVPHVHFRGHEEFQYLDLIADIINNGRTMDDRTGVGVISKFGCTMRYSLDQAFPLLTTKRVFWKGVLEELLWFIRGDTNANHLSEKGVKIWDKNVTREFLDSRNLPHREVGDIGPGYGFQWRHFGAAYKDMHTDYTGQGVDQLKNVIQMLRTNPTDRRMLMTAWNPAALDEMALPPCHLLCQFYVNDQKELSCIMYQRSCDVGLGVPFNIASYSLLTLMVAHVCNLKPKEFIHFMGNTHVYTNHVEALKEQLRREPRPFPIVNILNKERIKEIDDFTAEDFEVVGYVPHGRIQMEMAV
Description: Inhibition of Toxoplasma gondii thymidylate synthase.

The target in test [3] is Thymidylate synthase (Escherichia coli, UniProt C3SWJ7). As to the kind of experiment: Inhibition of Escherichia coli thymidylate synthase.
Sequence of Thymidylate synthase (Escherichia coli, UniProt C3SWJ7) (C3SWJ7 whole entry): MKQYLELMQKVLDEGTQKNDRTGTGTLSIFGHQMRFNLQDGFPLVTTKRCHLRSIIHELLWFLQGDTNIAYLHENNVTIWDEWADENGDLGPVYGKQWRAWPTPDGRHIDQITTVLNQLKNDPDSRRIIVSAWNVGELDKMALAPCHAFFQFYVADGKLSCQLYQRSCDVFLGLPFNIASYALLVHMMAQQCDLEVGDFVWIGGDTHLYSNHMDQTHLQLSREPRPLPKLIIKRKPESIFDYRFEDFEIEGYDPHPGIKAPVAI
In test [4] the target is T1, Bifunctional dihydrofolate reductase-thymidylate synthase. As to the kind of experiment: Inhibition of Toxoplasma gondii DHFR.
Test [5] deals with Thymidylate synthase (Homo sapiens, UniProt P04818).
Sequence of Thymidylate synthase (Homo sapiens, UniProt P04818) (P04818 whole entry): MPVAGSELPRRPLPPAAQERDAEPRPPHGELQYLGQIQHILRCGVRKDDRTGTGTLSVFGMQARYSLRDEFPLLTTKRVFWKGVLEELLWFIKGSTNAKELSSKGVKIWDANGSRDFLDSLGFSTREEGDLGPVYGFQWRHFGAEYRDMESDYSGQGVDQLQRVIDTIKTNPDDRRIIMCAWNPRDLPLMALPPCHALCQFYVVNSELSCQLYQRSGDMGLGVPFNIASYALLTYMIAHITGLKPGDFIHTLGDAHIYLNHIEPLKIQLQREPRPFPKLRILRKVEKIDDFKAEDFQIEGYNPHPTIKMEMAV
Description: Inhibition of human thymidylate synthase
For test [6], the system named is CCRF-CEM. Description: cells. The settings on record: Homo sapiens, 120 h.
The target in test [7] is T2, Dihydrofolate reductase (Escherichia coli, UniProt P0ABQ4).
T2 sequence (P0ABQ4 whole entry): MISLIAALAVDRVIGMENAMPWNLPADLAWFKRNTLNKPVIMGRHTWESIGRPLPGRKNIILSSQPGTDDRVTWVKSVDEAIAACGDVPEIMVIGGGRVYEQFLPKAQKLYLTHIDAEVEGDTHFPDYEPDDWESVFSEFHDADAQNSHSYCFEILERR
Description: Inhibition of Escherichia coli DHFR

Test [8] deals with Dihydrofolate reductase (Homo sapiens, UniProt P00374).
Sequence of Dihydrofolate reductase (Homo sapiens, UniProt P00374) (P00374 whole entry): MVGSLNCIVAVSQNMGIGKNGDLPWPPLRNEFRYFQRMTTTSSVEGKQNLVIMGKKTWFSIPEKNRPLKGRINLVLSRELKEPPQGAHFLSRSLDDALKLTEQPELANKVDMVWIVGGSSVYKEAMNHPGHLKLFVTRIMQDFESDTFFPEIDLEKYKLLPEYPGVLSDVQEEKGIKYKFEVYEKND
In test [9] the test system is CCRF-CEM. Description: cells. The settings on record: Homo sapiens, 120 h. The source holds these as a separate data set.
The subject of test [10] is CCRF-CEM. As to the kind of experiment: cells. The settings on record: Homo sapiens, 120 h. The source holds these as a separate data set.
Test [11] deals with CCRF-CEM. Description: Protection against 40 nM methotrexate-induced growth inhibition in human CCRF-CEM cells assessed as growth at 5 uM relative to control. Format: functional. More on the design: scale not given: the % may be the effect or the level left.
Test [12] concerns CCRF-CEM. As to the kind of experiment: Protection against 4000 nM N-{4-[(2,4-diamino-5-methyl-4, 7-dihydro-3H-pyrrolo[2,3-d]pyr imidin-6-yl)thio]benzoyl}-L-gl utamic acid-induced growth inhibition in human CCRF-CEM cells assessed as growth at 5 uM relative to control. The class given is functional. More on the design: scale not given: the % may be the effect or the level left.

The subject of test [13] is CCRF-CEM. Description: Cell growth in human CCRF-CEM cells at 20 nM relative to control. Format: functional.
For test [14], the system named is CCRF-CEM. As to the kind of experiment: Protection of drug-induced growth inhibition by 1 uM leucovorin in human CCRF-CEM cells assessed as growth at 20 nM relative to control. The class given is functional. More on the design: scale not given: the % may be the effect or the level left.
Test [15] deals with CCRF-CEM. Description: Protection of drug-induced growth inhibition by 0.1 uM leucovorin in human CCRF-CEM cells assessed as growth at 20 nM relative to control. The class given is functional. More on the design: scale not given: the % may be the effect or the level left.
Test [16] deals with CCRF-CEM. As to the kind of experiment: Protection of drug-induced growth inhibition by 10 uM leucovorin in human CCRF-CEM cells assessed as growth at 20 nM relative to control. Format: functional. More on the design: scale not given: the % may be the effect or the level left.
Test [17] deals with CCRF-CEM. As to the kind of experiment: Cell growth in human CCRF-CEM cells at 40 nM relative to control. Format: functional.

`Cc1c(Sc2ccc(C(=O)N[C@@H](CCC(=O)O)C(=O)O)cc2)[nH]c2nc(N)[nH]c(=O)c12`: the 50% effective concentration (EC50) in the test with CCRF-CEM [1], in the test on CCRF-CEM [6], in the test with CCRF-CEM [9] and in the test with CCRF-CEM [10] was more than 20 µM each time. Besides, the IC50 is 3.6 µM in [2]; more than 180 µM against Thymidylate synthase [3]; 2.2 µM in [4]; 100 µM at Thymidylate synthase [5]; more than 240 µM against Dihydrofolate reductase [7]; more than 240 µM on Dihydrofolate reductase [8].
For the compound `Cc1cn([C@H]2C[C@H](O)[C@@H](CO)O2)c(=O)[nH]c1=O` [DOXRIBTIMINE], the Activity with CCRF-CEM [11] turned out to be 18%; in the test with CCRF-CEM [12], 20%.
In the case of `CN(Cc1cnc2nc(N)nc(N)c2n1)c1ccc(C(=O)N[C@@H](CCC(=O)O)C(=O)O)cc1` [METHOTREXATE], the Activity in the test with CCRF-CEM [13] was determined as 5%; in the test with CCRF-CEM [14], 96%; with CCRF-CEM [15], 90%; in the test on CCRF-CEM [16] it was 95%; in the test on CCRF-CEM [17], 12%.
On Dihydrofolate reductase [7], `Cc1nc2ccc(CN(C)c3ccc(C(=O)N[C@@H](CCC(=O)O)C(=O)O)s3)cc2c(=O)[nH]1` [RALTITREXED] came in with an IC50 of 23 µM.
